# Laboratory results from patent US20180193490A1, “Beta Amyloid Staging” (GE HEALTHCARE LIMITED, priority 2015, published 2018).
# Biological target: T1, beta amyloid (Aβ) plaques in the brain (Homo sapiens, UniProt P05067)
# T1 construct: from tissue; host or cells: brain of living subjects (cortex and striatum), in vivo PET
# Experiment: GE067-026 blinded image evaluation (BIE) of amyloid PET images, separate cortical and striatal assessment
# Assay type: in vivo
# Details: for Subjects classified C+S+ by BIE assessment / Subjects classified C+S− by BIE assessment / Subjects classified C−S+ by BIE assessment / Subjects classified C−S− by BIE assessment: GE067-026 data set, N = 106; for BIE assessments C+S+ against striatal plaque count by histopathology / BIE assessments C+S− against striatal plaque count by histopathology / BIE assessments C−S− against striatal plaque count by histopathology: N = 108 subjects and 5 readers
# Description: The data presented explore the use of separate cortical and striatal assessments to aid the Thal (amyloid) phase assignation to in life subjects. The data sets used are from a Flutemetamol (18F) Injection Phase III clinical trial. In this trial PET image assessment was compared to histopathological assessment of amyloid pathology from autopsy. The available data for a preliminary analysis of amyloidosis staging using separate cortical and striatal assessments comes from two sources: • (1) The blinded image evaluations (BIEs) from the GE067-026 clinical trial (NCT02090855) • (2) Provisional SUVR determinations in post-hoc analyses of the GE067-026 data During the BIEs for the above trial, 5 independent readers assessed each of 106 amyloid PET images as abnormal or normal. These dichotomous assessments formed the primary analysis for the trial. However, the individual cortical and striatal assessments were recorded and were re-analysed to estimate the cortical and striatal status separately. For each subject, each of the five readers rated 4 cortical regions and 1 striatal region as Aβ positive or Aβ negative.^1 ^1 All regions assessed are bilateral. Readers assessed images bilaterally—left and right hemispheres—but recoded only one result for each of the 5 bilateral regions. Applying the same general principle that if any of the 4 cortical regions are positive this confers cortical positivity, separate cortical and striatal assessments were determined for each case.
# T1 sequence (P05067 672-713 limits assumed): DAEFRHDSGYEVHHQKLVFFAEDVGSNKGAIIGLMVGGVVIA
structure (smiles),measurement,setting,value
CNc1ccc(-c2nc3ccc(O)cc3s2)cc1F [Flutemetamol],Share of C+S− cases that were phase 3,BIE majority assessment,75%
same,Cases identified as C+S− by Majority assessment,"BIE majority, all Thal phases",6
same,Subjects classified C+S+ by BIE assessment,Reader A,73
same,Subjects classified C+S− by BIE assessment,Reader A,5
same,Subjects classified C−S+ by BIE assessment,Reader A,1
same,Subjects classified C−S− by BIE assessment,Reader A,28
same,Subjects classified C+S+ by BIE assessment,Reader B,68
same,Subjects classified C+S− by BIE assessment,Reader B,4
same,Subjects classified C−S+ by BIE assessment,Reader B,0
same,Subjects classified C−S− by BIE assessment,Reader B,35
same,Subjects classified C+S+ by BIE assessment,Reader C,64
same,Subjects classified C+S− by BIE assessment,Reader C,6
same,Subjects classified C−S+ by BIE assessment,Reader C,0
same,Subjects classified C−S− by BIE assessment,Reader C,37
same,Subjects classified C+S+ by BIE assessment,Reader D,35
same,Subjects classified C+S− by BIE assessment,Reader D,38
same,Subjects classified C−S+ by BIE assessment,Reader D,0
same,Subjects classified C−S− by BIE assessment,Reader D,34
same,Subjects classified C+S+ by BIE assessment,Reader E,70
same,Subjects classified C+S− by BIE assessment,Reader E,5
same,Subjects classified C−S+ by BIE assessment,Reader E,2
same,Subjects classified C−S− by BIE assessment,Reader E,30
same,BIE assessments C+S+ against striatal plaque count by histopathology,STR Plaques Frequent,289
same,BIE assessments C+S− against striatal plaque count by histopathology,STR Plaques Frequent,37
same,BIE assessments C−S− against striatal plaque count by histopathology,STR Plaques Frequent,23
same,BIE assessments C+S+ against striatal plaque count by histopathology,STR Plaques Moderate,18
same,BIE assessments C+S− against striatal plaque count by histopathology,STR Plaques Moderate,17
same,BIE assessments C−S− against striatal plaque count by histopathology,STR Plaques Moderate,24
same,BIE assessments C+S+ against striatal plaque count by histopathology,STR Plaques None,0
same,BIE assessments C+S− against striatal plaque count by histopathology,STR Plaques None,1
same,BIE assessments C−S− against striatal plaque count by histopathology,STR Plaques None,98
same,BIE assessments C+S+ against striatal plaque count by histopathology,STR Plaques Sparse,0
same,BIE assessments C+S− against striatal plaque count by histopathology,STR Plaques Sparse,1
same,BIE assessments C−S− against striatal plaque count by histopathology,STR Plaques Sparse,19
same,Cases categorised C+S+ by BIE majority,Thal (amyloid) Phase 0,0
same,Cases categorised C+S− by BIE majority,Thal (amyloid) Phase 0,0
same,Cases categorised C−S+ by BIE majority,Thal (amyloid) Phase 0,0
same,Cases categorised C−S− by BIE majority,Thal (amyloid) Phase 0,7
same,Cases categorised C+S+ by BIE majority,Thal (amyloid) Phase 1,0
same,Cases categorised C+S− by BIE majority,Thal (amyloid) Phase 1,0
same,Cases categorised C−S+ by BIE majority,Thal (amyloid) Phase 1,0
same,Cases categorised C−S− by BIE majority,Thal (amyloid) Phase 1,10
same,Cases categorised C+S+ by BIE majority,Thal (amyloid) Phase 2,0
same,Cases categorised C+S− by BIE majority,Thal (amyloid) Phase 2,0
same,Cases categorised C−S+ by BIE majority,Thal (amyloid) Phase 2,0
same,Cases categorised C−S− by BIE majority,Thal (amyloid) Phase 2,5
same,Cases categorised C+S+ by BIE majority,Thal (amyloid) Phase 3,3
same,Cases categorised C+S− by BIE majority,Thal (amyloid) Phase 3,4
same,Cases categorised C−S+ by BIE majority,Thal (amyloid) Phase 3,0
same,Cases categorised C−S− by BIE majority,Thal (amyloid) Phase 3,7
same,Cases categorised C+S+ by BIE majority,Thal (amyloid) Phase 4,17
same,Cases categorised C+S− by BIE majority,Thal (amyloid) Phase 4,2
same,Cases categorised C−S+ by BIE majority,Thal (amyloid) Phase 4,0
same,Cases categorised C−S− by BIE majority,Thal (amyloid) Phase 4,5
same,Cases categorised C+S+ by BIE majority,Thal (amyloid) Phase 5,46
same,Cases categorised C+S− by BIE majority,Thal (amyloid) Phase 5,0
same,Cases categorised C−S+ by BIE majority,Thal (amyloid) Phase 5,0
same,Cases categorised C−S− by BIE majority,Thal (amyloid) Phase 5,0
